Assays:
[1] = target: T1, F. nucleatum F1Fo-ATP synthase (purified; c-ring site of DCCD) (Fusobacterium nucleatum, UniProt Q8RGD7); experiment: inhibition of ATP hydrolysis, ATP-regenerating assay; format: biochemical; conditions: covalent (Glu65 of subunit c); 20 min preincubation at 25 °C, 50 mM MOPS, 2 mM MgCl2, pH 7.5; no added Na+
T1 construct: gene atpE; same native holoenzyme as P1; entry split because DCCD modifies Glu65 of subunit c; with ATP synthase subunit alpha; ATP synthase subunit beta; ATP synthase gamma chain; ATP synthase subunit delta; ATP synthase epsilon chain; ATP synthase subunit a; ATP synthase subunit b

[2] = target: T2, F. nucleatum c11 ring (isolated c-ring) (Fusobacterium nucleatum, UniProt Q8RGD7); experiment: fluorescence increase on labelling; SDS-PAGE under UV light; format: binding; conditions: covalent (Glu65); 100 µM NCD-4, MES pH 5.7, 1.5% n-octyl-β-D-glycoside, no Na+
T2 construct: gene atpE; isolated c11 ring from hybrid ATP synthase (I. tartaricus F1-ab2) expressed in E. coli DK8; detergent-solubilized
T2 sequence (Q8RGD7 whole entry): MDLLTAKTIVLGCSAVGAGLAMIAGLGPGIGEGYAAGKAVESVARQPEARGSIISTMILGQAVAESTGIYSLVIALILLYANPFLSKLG

SMILES	inhibition of ATP hydrolysis, ATP-regenerating assay [1]	fluorescence increase on labelling; SDS-PAGE under UV light [2]
C(=NC1CCCCC1)=NC1CCCCC1 [DCCD, N,N′-dicyclohexylcarbodiimide]	The ATPase activity of the enzyme was inhibited by DCCD in a concentration-dependent manner	
CN(C)c1ccc(N=C=NC2CCCCC2)c2ccccc12 [NCD-4, N-cyclohexyl-N′-(4-(dimethylamino)-α-naphthyl)-carbodiimide]		NCD-4 modifies Glu65 in the isolated c-ring
